For one assay, the target named is T1, mouse TGR5 receptor (Mus musculus, UniProt Q80SS6).
T1 construct: expressed in transfected cells; host or cells: HEK293-EBNA (293 c18, ATCC CRL10852), Hygromycin B selection
T1 sequence (Q80SS6 1-329): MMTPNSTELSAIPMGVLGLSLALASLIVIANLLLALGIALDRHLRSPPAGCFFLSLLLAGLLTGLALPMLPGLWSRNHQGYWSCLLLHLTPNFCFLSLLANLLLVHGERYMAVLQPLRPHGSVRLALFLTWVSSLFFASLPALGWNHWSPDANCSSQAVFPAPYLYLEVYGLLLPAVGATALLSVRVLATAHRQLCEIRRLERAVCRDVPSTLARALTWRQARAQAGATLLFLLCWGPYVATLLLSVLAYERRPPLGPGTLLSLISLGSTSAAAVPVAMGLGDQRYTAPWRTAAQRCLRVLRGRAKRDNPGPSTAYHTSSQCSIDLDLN
Put plainly: Mouse TGR5 cAMP production assay (HTRF, Cisbio cAMP HiRange). Format: cell-based. The settings on record: HEK293-EBNA cells overexpressing mouse TGR5, HTRF cAMP HiRange; coded A-D. An excerpt:
Mouse TGR5 cAMP Production Assay
We evaluated compounds of the present invention for their ability to induce cAMP production in HEK-EBNA cells overexpressing the mouse TGR5 receptor. Human embryonic kidney cells (HEK293-EBNA) stably expressing mouse TGR5 receptor were established using the following procedure. Specifically, a commercially-obtained gene encoding mouse TGR5 (accession number BC116914) from Thermo Scientific (Waltham, Mass.) was cloned into an episomal expression vector. The resulting expression plasmid was then transfected into 293 c18 (ATCC® CRL10852™) cells, which express the Epstein-Barr virus nuclear antigen EBNA1 and can support the replication of episomal vectors. Selection for the plasmid was maintained with Hygromycin B. Cells were cultured and maintained in DMEM (Sigma; cat #6429) supplemented with 10% Fetal Bovine Serum, 1% penicillin/streptomycin, 2 mM L-alanine L-glutamine (GlutaMax), and 250 μg/mL Hygromycin.
2. HTRF cAMP Production Assay
In this second cAMP production assay, the cAMP production was measured in 384-well low volume plates (Greiner; cat #784075) using the Cisbio™ cAMP HiRange HTRF Assay Kit (Cisbio) according to the manufacturer's protocol.
Briefly, compounds were initially diluted in 100% DMSO (12-point serial dilution by half logs) in a 96-well plate and then were further diluted 1:50 in PBS containing 10 mM HEPES. 5 μL were transferred to the 384-well assay plate in duplicate. HEK293-EBNA cells stably overexpressing mouse TGR5 were harvested using non-enzymatic cell dissociation buffer (Sigma), spun down, then resuspended in serum-free DMEM with 500 μM IBMX at a density of 500,000 cells/mL. 5 μL of cell suspension was transferred to each well of the 384-well assay plate already containing compound. The plate was covered and incubated at room temperature for 1 hour. The d2-cAMP and anti-cAMP Ab-cryptate stock solutions were prepared as per kit instructions. Then 5 μL of each conjugate (d2 and cryptate) were added to each well of the assay plate. The plate was covered and incubated at room temperature for 1 hour. The plate was read on an Envision™ plate reader (Perkin Elmer).
(§1) In Table 33, EC50 values for both human and mouse cells were determined according to the TGR5 cAMP assays described above.

Another assay concerns the target T2, human TGR5 receptor (Homo sapiens, UniProt Q8TDU6).
T2 construct: host or cells: CHO-K1 (hTGR5-CHO cells)
T2 sequence (Q8TDU6 1-330): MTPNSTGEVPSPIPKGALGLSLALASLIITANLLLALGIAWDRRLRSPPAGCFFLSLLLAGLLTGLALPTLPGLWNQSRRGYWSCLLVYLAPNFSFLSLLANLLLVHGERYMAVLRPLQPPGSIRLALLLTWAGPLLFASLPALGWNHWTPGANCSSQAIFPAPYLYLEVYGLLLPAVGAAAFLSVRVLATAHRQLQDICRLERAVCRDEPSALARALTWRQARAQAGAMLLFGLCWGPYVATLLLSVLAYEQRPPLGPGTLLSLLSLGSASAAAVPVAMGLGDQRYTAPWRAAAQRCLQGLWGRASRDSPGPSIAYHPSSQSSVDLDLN
Put plainly: Human TGR5 cAMP production assay. The settings on record: human TGR5, luminescent cAMP assay; coded A-D; read-out: Human TGR5 Lum. cAMP Activity (EC50). Format: cell-based. The protocol: Human TGR5 cAMP Production Assay
We evaluated the Compounds of the present invention for their ability to induce cAMP production using CHO-K1 cells overexpressing the human TGR5 receptor. CHO-K1 cells stably expressing human TGR5 receptor (accession number NM_001077194.1 (hTGR5) (i.e., hTGR5-CHO cells) were purchased from DiscoveRx Corporation (Fremont, Calif.). hTGR5-CHO cells were grown in Ham's F-12 media supplemented with 10% Fetal Bovine Serum, 1% Penicillin-Streptomycin, 2 mM L-Alanine L-Glutamine (Glutamax), and 800 μg/mL Geneticin selection. The cAMP production assay was performed using DiscoveRx's cAMP XS+ kit (Catalog No. 90-0075XL) following the manufacturer's recommended protocol. Briefly, hTGR5-CHO cells were harvested using non-enzymatic cell dissociation buffer (Sigma-Aldrich, St. Louis, Mo.) and 1×10^6 cells were combined in Phosphate-Buffered Saline (PBS) to a final volume of 496 μL to which 4 μL of 125 mM IBMX (Sigma-Aldrich, St. Louis, Mo.) was added. 500 μL of cAMP antibody solution was added to the harvested cells and incubated at room temperature for 20 min.
Test compounds were serially diluted (half-log dilutions) in DMSO and then further diluted 1:50 in PBS, 10 mM HEPES buffer. 2 μL of serially diluted compound was added to a 384-well low volume plate (Greiner; cat #784075) and centrifuged briefly. 2 μL of the cell/cAMP antibody mixture was then added to each compound-containing well and allowed to incubate at room temperature for one hour. Following incubation, the XS+ kits' ED/Lysis/CL Substrate Working Solution was prepared following the manufacturer's recommended protocol and 4 μL was added to each well of the plate. The plate was then incubated for one hour at room temperature. Following incubation, 4 μL of Enzyme Acceptor reagent was added to the plate and allowed to incubate overnight at room temperature. Luminescent signal was then detected using the Viewlux instrument (Perkin-Elmer, Waltham, Mass.).
as §1
A general note: Cyclic AMP is a second messenger, typically raised through Gs and lowered through Gi signalling.

Structures can show the parent of a compound that is named as a salt.

For `Cc1cnccc1-c1cccc([C@H](C)N(CCCC(=O)NCCS(=O)(=O)O)S(=O)(=O)c2ccccc2C(F)(F)F)c1`, the EC50 – broadly, the concentration at which the effect is half-maximal – at mouse TGR5 receptor was 100 to 999 nM; on human TGR5 receptor, less than 100 nM.
Taken in the same sequence, the figures for `Cc1cnccc1-c1cccc([C@H](C)N(CCCCNc2c(NCCS(=O)(=O)O)c(=O)c2=O)S(=O)(=O)c2ccccc2C(F)(F)F)c1` were 100 to 999 nM and less than 100 nM.
Taken in the same sequence, the figures for `CCc1cnccc1-c1cccc(C2CN(C(=O)[C@@H](N)CS(=O)(=O)O)CCN2S(=O)(=O)c2cccc(Cl)c2C)c1` (mixture of isomers) [Compound 48, (2R)-2-amino-3-(4-((3-chloro-2-methylphenyl)sulfonyl)-3-(3-(3-ethylpyridin-4-yl)phenyl)piperazin-1-yl)-3-oxopropane-1-sulfonic acid hydrochloride] were less than 100 nM and 100 to 999 nM.
Take `COc1cnccc1-c1cccc(C(CO)NS(=O)(=O)c2cccc(C(F)(F)F)c2)c1` (racemic) [Compound 17, (+/−) N-(2-hydroxy-1-(3-(3-methoxypyridin-4-yl)phenyl)ethyl)-3-(trifluoromethyl)benzenesulfonamide]: the EC50 at mouse TGR5 receptor was in the range of 1000 to 30000 nM; on human TGR5 receptor, 100 to 999 nM.
Taken in the same sequence, the figures for `Cc1cnccc1-c1cccc(C2CCCN2S(=O)(=O)c2ccccc2C(F)(F)F)c1` (racemic) [Compound 41, (+/−) 3-Methyl-4-(3-(1-((2-(trifluoromethyl)phenyl)sulfonyl)pyrrolidin-2-yl)phenyl)pyridine] were 100 to 999 nM and less than 100 nM.
Taken in the same sequence, the figures for `Cc1cnccc1-c1cccc(C2CN(C(=O)OC(C)(C)C)CCN2S(=O)(=O)c2ccccc2C(F)(F)F)c1` (racemic) [Compound 42, (+/−) tert-butyl 3-(3-(3-methylpyridin-4-yl)phenyl)-4-((2-(trifluoromethyl)phenyl)sulfonyl)-piperazine-1-carboxylate] were 1000 to 30000 nM and 1000 to 30000 nM.
`CCc1cnccc1-c1cccc(C2CNCCN2S(=O)(=O)c2cccc(Cl)c2C)c1` (racemic) [Compound 43, (+/−) 1-((3-chloro-2-methylphenyl)sulfonyl)-2-(3-(3-ethylpyridin-4-yl)phenyl)piperazine hydrochloride]: the concentration for a half-maximal effect (EC50) on mouse TGR5 receptor and at human TGR5 receptor was less than 100 nM each time.
On to `Cc1cnccc1-c1cccc(C2CNCCN2S(=O)(=O)c2ccccc2C(F)(F)F)c1` (racemic) [Compound 44, (+/−) 2-(3-(3-methylpyridin-4-yl)phenyl)-1-((2-(trifluoromethyl)phenyl)sulfonyl)piperazine], for which the EC50 at mouse TGR5 receptor and on human TGR5 receptor was 100 to 999 nM each time.
On to `Cc1cnccc1-c1cccc([C@H]2C[C@@H](C(=O)O)CCN2S(=O)(=O)c2ccccc2C(F)(F)F)c1` (relative stereo) [Compound 55, cis-2-(3-(3-Methylpyridin-4-yl)phenyl)-1-((2-(trifluoromethyl)phenyl)sulfonyl)piperidine-4-carboxylic acid], for which the EC50 on mouse TGR5 receptor and at human TGR5 receptor was 100 to 999 nM each time.
For `CC(C)(NS(=O)(=O)c1cccc(C(F)(F)F)c1)c1cccc(-c2ccncc2N)c1` [Compound 1AM], the EC50 was 100 to 999 nM at mouse TGR5 receptor and less than 100 nM on human TGR5 receptor.
As for `CC(C)(NS(=O)(=O)c1ccccc1C(F)(F)F)c1cccc(-c2ccnnc2)c1` [Compound 1BL], the EC50 was in the range of 1000 to 30000 nM at mouse TGR5 receptor and 100 to 999 nM at human TGR5 receptor.
Taken in the same sequence, the figures for `Cc1c(Cl)cccc1S(=O)(=O)N[C@@H](C)c1cccc(-c2ccnnc2)c1` [Compound 1BP] were 1000 to 30000 nM and 100 to 999 nM.
In the case of `COc1cnccc1-c1cc(CNS(=O)(=O)c2cccc(C(F)(F)F)c2)ccn1` [Compound 1BS], the EC50 on mouse TGR5 receptor and at human TGR5 receptor was 1000 to 30000 nM in each case.
Take `COc1cnccc1-c1ccnc(CNS(=O)(=O)c2ccccc2C(F)(F)F)c1` [Compound 1BT]: the 50% effective concentration (EC50) at mouse TGR5 receptor and at human TGR5 receptor was 1000 to 30000 nM throughout.
As to `COc1cnccc1-c1cccc(C(NS(=O)(=O)c2ccccc2C(F)(F)F)c2ccccc2)c1` (stereo not shown) [Compound 1CC], the EC50 at mouse TGR5 receptor and at human TGR5 receptor was 100 to 999 nM each time.
Consider `CC[C@H](NS(=O)(=O)c1ccccc1C(F)(F)F)c1cccc(-c2ccncc2OC)c1` [Compound 1CD], for which the concentration giving a half-maximal response (EC50) on mouse TGR5 receptor was 100 to 999 nM; at human TGR5 receptor, less than 100 nM.
On to `COC(=O)C(NS(=O)(=O)c1cccc(C(F)(F)F)c1)c1cccc(-c2ccncc2OC)c1` (stereo not shown) [Compound 1CE], for which the half-maximal effective concentration (EC50) at mouse TGR5 receptor and on human TGR5 receptor was 1000 to 30000 nM throughout.
`COc1cnccc1-c1cccc(CCNS(=O)(=O)c2ccccc2C(F)(F)F)c1` [Compound 1CF]: the EC50 lay in the range of 1000 to 30000 nM on mouse TGR5 receptor and 100 to 999 nM at human TGR5 receptor.
In the case of `COc1cnccc1-c1cccc(C(C)(C)NS(=O)(=O)c2ccc(F)cc2C(F)(F)F)c1` [Compound 2BD], the EC50 at mouse TGR5 receptor was 100 to 999 nM; on human TGR5 receptor it was less than 100 nM.
Take `COc1cnccc1-c1cccc(C(C)(C)NS(=O)(=O)c2cc(Cl)ccc2Cl)c1` [Compound 2BE]: the EC50 was 100 to 999 nM at mouse TGR5 receptor and less than 100 nM at human TGR5 receptor.
As for `COc1cnccc1-c1cccc(C(C)(C)NS(=O)(=O)c2ccc(Cl)cc2C(F)(F)F)c1` [Compound 2BF], the EC50 is 100 to 999 nM at mouse TGR5 receptor and less than 100 nM at human TGR5 receptor.
Turning to `COc1cnccc1-c1cccc(C(C)(C)NS(=O)(=O)c2ccc(Cl)cc2Cl)c1` [Compound 2BG], the EC50 at mouse TGR5 receptor and at human TGR5 receptor was less than 100 nM each time.
For `COc1cnccc1-c1cccc(C(C)(C)NS(=O)(=O)c2cc(Cl)ccc2[N+](=O)[O-])c1` [Compound 2BH], the EC50 at mouse TGR5 receptor and at human TGR5 receptor was less than 100 nM throughout.
Consider `COc1cnccc1-c1cccc(C(C)(C)NS(=O)(=O)c2ccc(Cl)cc2[N+](=O)[O-])c1` [Compound 2BI], for which the EC50 at mouse TGR5 receptor is 100 to 999 nM; on human TGR5 receptor it was less than 100 nM.
Regarding `COc1cnccc1-c1cccc(C(C)(C)NS(=O)(=O)c2ccc(C(F)(F)F)cc2[N+](=O)[O-])c1` [Compound 2BJ], the figures for the EC50 on mouse TGR5 receptor and on human TGR5 receptor were 1000 to 30000 nM and less than 100 nM, respectively.
Taken in the same sequence, the figures for `COc1cnccc1-c1cccc(C(C)(C)NS(=O)(=O)c2cc(C(F)(F)F)ccc2C(F)(F)F)c1` [Compound 2BK] were 1000 to 30000 nM and 100 to 999 nM.

(Values after patent US11236055B2 (Venenum Biodesign, LLC, priority 2016, dated 2022).)
